Experiment [1] addresses T1, purified Hemoglobin S (HbS) (Homo sapiens, UniProt P68871+P69905, E7V).
T1 construct: HbS was purified by a modified procedure; from tissue; host or cells: blood of homozygous sickle cell patients (CHORI); for the polymerization assay purified by the CRO VIRUSYS
Description: Modulation of hemoglobin oxygen affinity: oxygen equilibrium curves (HEMOX) in purified HbS. The experiment is classed as biochemical, human (homozygous sickle cell patients). As to conditions: compound at 30 μM; 25 μM purified HbS, 45 min at 37° C. In a few lines:
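HbS from homozygous sickle cell patient blood, 25 μM in HEMOX buffer pH 7.4, incubated 45 min at 37° C with compound (30 μM unless noted). Air-saturated then deoxygenated with N2; p50 from Hill fit; delta p50% = (control p50 − treated p50)/control p50 × 100.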

The subject of a further experiment is whole blood. Description: Whole blood assay: oxygen equilibrium curves of whole blood. As to conditions: compound at 1000 μM; hematocrit 20%, 1 hour at 37° C. The class given is cell-based, human (homozygous sickle cell patients). As to the method: Oxygen Equilibrium Curves (OEC) of whole blood before and after treatment with different concentrations of substituted benzaldehyde compounds were performed as follows using a HEMOX analyzer (TCS Scientific, New Hope, Pa.). Blood samples from homozygous sickle cell patients were obtained though the Hemoglobinopathy Center at Children's Hospital Oakland Research Institute (CHORI) with Institutional Review Board approval. The hematocrit was adjusted to 20% using autologous plasma and the blood samples were incubated for 1 hour at 37° C. in absence or presence of compounds. 100 μl of these samples were added to 5 mL of Hemox buffer (30 mM TES, 130 mM NaCl, 5 mM KCl, pH=7.4) at 37° C. and then transferred to the Hemox sample chamber. The samples were saturated with oxygen by flushing with compressed air for 10 minutes. The samples were then flushed with pure nitrogen and the respective absorbances of oxy- and deoxy-Hb are recorded as a function of the solution pO2. The oxygen equilibrium data were then fitted to the Hill Model to obtain values for p50. The deoxygenation curves for both whole blood alone (control) and whole blood in the presence of the compound were collected with the TCS software.
Table 5 below lists the delta p50% values where + indicates a delta p50% of between 0 and 29, ++ indicates a delta p50% of between 30 and 50, and +++ indicates a delta p50% of 50 or greater. Unless noted otherwise, the compounds in Table 2 were tested at 1000 μM.

The next experiment concerns the target T2, HbS/A (Homo sapiens, UniProt P68871+P69905, E7V).
T2 construct: A mixture of HbS/A was purified from blood; from tissue; host or cells: blood of homozygous sickle cell patients (CHORI)
Kind of experiment: R/T assay (relaxed-to-tense transition under deoxygenated conditions). The experiment is classed as biochemical, human (homozygous sickle cell patients). As to conditions: 3 μM HbS/A, % R remaining vs no treatment. As to the method: A relaxed-to-tense transition assay (“R/T assay”) was used to determine the ability of substituted benzaldehyde compounds to maintain the high-oxygen affinity relaxed (R) state of hemoglobin under deoxygenated conditions. This ability can be expressed as a “delta R” value (i.e., the change in the time-period of the R state after hemoglobin is treated with a compound, as compared to the period without treatment with the compound). Delta R is the % R to remaining after the compounds treatment compared with no treatment (e.g. if R % without treatment is 8% while with treatment with a target compound is 48% R at 30 μM, then % R is 40% for that compound.
A mixture of HbS/A was purified from blood obtained from homozygous sickle cell patients though the Hemoglobinopathy Center at Children's Hospital Oakland Research Institute (CHORI) with Institutional Review Board approval. HbS/A (at a final concentration of 3 μM) was incubated for 1 hr at 37° C. in presence or absence of compounds in […] potassium phosphate buffer, pH=7.4 and 30 μM 2, 3 diphosphoglycerate (DPG) in 96 well plates in a final volume of 160 μl. Compounds were added at different concentrations (3 μM to 100 μM final concentrations). Plates were covered with a Mylar film. After incubation was completed the Mylar cover was removed and the plates were placed in a Spectrostar Nano plate reader previously heated at 37° C. Five minutes later, N2 (flow rate=20 L/min) was flowed through the spectrophotometer. Spectroscopic measurements (300 nm to 700 nm) were taken every 5 min for 2 hours. Data analysis was performed by using linear regression from the data retrieved for all wavelengths.
Table 4 below lists the delta R values where + indicates a delta R of between 0 and 30, ++ indicates a delta R of between 30 and 50, and +++ indicates a delta R of 50 or greater. Unless noted otherwise, the compounds in Table 2 were tested at 30 μM.

18 molecules from patent US10377741B2, “Substituted heteroaryl aldehyde compounds and methods for their use in increasing tissue oxygenation” (Global Blood Therapeutics, Inc., priority 2011, dated 2019) can be followed below.

`COc1cc(C=O)c(OCc2nccc3ccccc23)cn1` [Compound 44, 5-(isoquinolin-1-ylmethoxy)-2-methoxyisonicotinaldehyde]: the “delta p50%” value in experiment [1] is recorded as “+++ (a delta p50% of 50 or greater)”. The “delta p50% Values for Whole Blood Assay” value in the experiment with whole blood was “+ (a delta p50% of between 0 and 29)”.

As to `COc1cc(C=O)c(OCc2cccn3c(C)nnc23)cn1` [Compound 58, 2-methoxy-5-((3-methyl-[1,2,4]triazolo[4,3-a]pyridin-8-yl)methoxy)isonicotinaldehyde], the “delta p50%” value in experiment [1] was “++ (a delta p50% of between 30 and 50)”. On HbS/A (compound at 9 μM), the “delta R” value was “+ (a delta R of between 0 and 30)”. The “delta p50% Values for Whole Blood Assay” value with whole blood was “+ (a delta p50% of between 0 and 29)”.

On to `COc1cc(C=O)c(OCc2cccnc2-c2ccn[nH]2)cn1` [Compound 65, 5-((2-(1H-pyrazol-5-yl)pyridin-3-yl)methoxy)-2-methoxyisonicotinaldehyde], for which the “delta p50%” value in experiment [1] was “++ (a delta p50% of between 30 and 50)”. Also, at HbS/A (compound at 9 μM), the “delta R” value was “+ (a delta R of between 0 and 30)”. The “delta p50% Values for Whole Blood Assay” value in the experiment with whole blood was “+ (a delta p50% of between 0 and 29)”.

For the molecule `COc1cc(C=O)c(OCc2cncc(-c3ccnn3C)c2)cn1` [Compound 74, 2-methoxy-5-((5-(1-methyl-1H-pyrazol-5-yl)pyridin-3-yl)methoxy)isonicotinaldehyde], in experiment [1], the “delta p50%” value was “++ (a delta p50% of between 30 and 50)”. Further, the “delta p50% Values for Whole Blood Assay” value with whole blood was “++ (a delta p50% of between 30 and 50)”.

With `COc1cc(C=O)c(OCc2cncc(C(=O)O)c2)cn1` [Compound 79, 5-((4-formyl-6-methoxypyridin-3-yloxy)methyl)nicotinic acid], in experiment [1], the “delta p50%” value was “++ (a delta p50% of between 30 and 50)”. Further, the “delta R” value on HbS/A (compound at 9 μM) was “++ (a delta R of between 30 and 50)”. Besides, in the experiment with whole blood, the “delta p50% Values for Whole Blood Assay” value is “+ (a delta p50% of between 0 and 29)”.

Consider `COc1cc(C=O)c(OCc2cnc3ccccc3c2)cn1` [Compound 80, 2-methoxy-5-(quinolin-3-ylmethoxy)isonicotinaldehyde], for which, in experiment [1], the “delta p50%” value is “++ (a delta p50% of between 30 and 50)”. In addition, the “delta R” value at HbS/A (compound at 9 μM) is listed as “+++ (a delta R of 50 or greater)”. Besides, in the experiment on whole blood, the “delta p50% Values for Whole Blood Assay” value was “+ (a delta p50% of between 0 and 29)”.

As to `Cc1ccc(OCc2cccc3cnn(C)c23)c(C=O)n1` [Compound 92, 6-methyl-3-((1-methyl-1H-indazol-7-yl)methoxy)picolinaldehyde], the “delta p50%” value in experiment [1] was “++ (a delta p50% of between 30 and 50)”. The “delta R” value on HbS/A (compound at 9 μM) is “+ (a delta R of between 0 and 30)”. In addition, in the experiment on whole blood, the “delta p50% Values for Whole Blood Assay” value is “+ (a delta p50% of between 0 and 29)”.

With `Cc1ccc(OCc2nccc3ccccc23)c(C=O)n1` [Compound 93, 3-(isoquinolin-1-ylmethoxy)-6-methylpicolinaldehyde], the “delta p50%” value in experiment [1] was “++ (a delta p50% of between 30 and 50)”. Moreover, the “delta R” value at HbS/A (compound at 9 μM) is “+ (a delta R of between 0 and 30)”. In addition, the “delta p50% Values for Whole Blood Assay” value in the experiment on whole blood is “+ (a delta p50% of between 0 and 29)”.

`COc1cc(C=O)c(OCc2cccc3ocnc23)cn1` [Compound 103, 5-(benzo[d]oxazol-4-ylmethoxy)-2-methoxyisonicotinaldehyde]: the “delta p50%” value in experiment [1] is “++ (a delta p50% of between 30 and 50)”. Further, the “delta R” value at HbS/A (compound at 9 μM) is “++ (a delta R of between 30 and 50)”. The “delta p50% Values for Whole Blood Assay” value in the experiment with whole blood is “+ (a delta p50% of between 0 and 29)”.

With `Cc1ccc(OCc2ccnc3cccnc23)c(C=O)n1` [Compound 106, 3-((1,5-naphthyridin-4-yl)methoxy)-6-methylpicolinaldehyde], the “delta p50%” value in experiment [1] was “++ (a delta p50% of between 30 and 50)”. Also, in the experiment on whole blood, the “delta p50% Values for Whole Blood Assay” value was “+ (a delta p50% of between 0 and 29)”.

Regarding `Cc1ccc(OCc2ccc3c(cnn3C)c2)c(C=O)n1` [Compound 108, 6-methyl-3-((1-methyl-1H-indazol-5-yl)methoxy)picolinaldehyde], the “delta p50%” value in experiment [1] was “++ (a delta p50% of between 30 and 50)”. On HbS/A (compound at 9 μM), the “delta R” value was “+++ (a delta R of 50 or greater)”. Besides, the “delta p50% Values for Whole Blood Assay” value in the experiment with whole blood is “+ (a delta p50% of between 0 and 29)”.

`COc1cc(C=O)c(OCc2cccc3ncccc23)cn1` [Compound 120, 2-methoxy-5-(quinolin-5-ylmethoxy)isonicotinaldehyde]: in experiment [1], the “delta p50%” value is “++ (a delta p50% of between 30 and 50)”. The “delta R” value at HbS/A (compound at 9 μM) was “++ (a delta R of between 30 and 50)”. The “delta p50% Values for Whole Blood Assay” value in the experiment on whole blood is “+ (a delta p50% of between 0 and 29)”.

For `COc1cc(C=O)c(OCc2cccnc2-c2ccnn2C)cn1` [Compound 129, 2-methoxy-5-((2-(1-methyl-1H-pyrazol-5-yl)pyridin-3-yl)methoxy)isonicotinaldehyde], in experiment [1], the “delta p50%” value is “++ (a delta p50% of between 30 and 50)”. In addition, on HbS/A (compound at 9 μM), the “delta R” value was “++ (a delta R of between 30 and 50)”. For the same molecule, the “delta p50% Values for Whole Blood Assay” value in the experiment with whole blood was “++ (a delta p50% of between 30 and 50)”.

With `COc1cc(C=O)c(OCc2cccnc2-c2nn[nH]n2)cn1` [Compound 131, 5-((2-(2H-tetrazol-5-yl)pyridin-3-yl)methoxy)-2-methoxyisonicotinaldehyde], the “delta p50%” value in experiment [1] is “++ (a delta p50% of between 30 and 50)”. Further, the “delta R” value on HbS/A (compound at 9 μM) was “+ (a delta R of between 0 and 30)”. For the same molecule, in the experiment with whole blood, the “delta p50% Values for Whole Blood Assay” value was “+ (a delta p50% of between 0 and 29)”.

`COc1cc(C=O)c(OCc2cccnc2-c2[nH]ncc2C)cn1` [Compound 132, 2-methoxy-5-((2-(4-methyl-1H-pyrazol-5-yl)pyridin-3-yl)methoxy)isonicotinaldehyde]: the “delta p50%” value in experiment [1] is “+++ (a delta p50% of 50 or greater)”. Besides, the “delta R” value on HbS/A (compound at 30 μM) was “++ (a delta R of between 30 and 50)”. Besides, the “delta p50% Values for Whole Blood Assay” value in the experiment on whole blood is “++ (a delta p50% of between 30 and 50)”.

In the case of `COc1cc(C=O)c(OCc2c(-c3ccn[nH]3)ncc3ccccc23)cn1` [Compound 133, 5-((3-(1H-pyrazol-5-yl)isoquinolin-4-yl)methoxy)-2-methoxyisonicotinaldehyde], the “delta p50%” value in experiment [1] was “++ (a delta p50% of between 30 and 50)”. At HbS/A (compound at 9 μM), the “delta R” value is “++ (a delta R of between 30 and 50)”. In addition, the “delta p50% Values for Whole Blood Assay” value in the experiment on whole blood is “+ (a delta p50% of between 0 and 29)”.

Regarding `COc1cc(C=O)c(OCc2cccn3cncc23)cn1` [Compound 140, 5-(imidazo[1,5-a]pyridin-8-ylmethoxy)-2-methoxyisonicotinaldehyde], the “delta p50%” value in experiment [1] is “++ (a delta p50% of between 30 and 50)”. In addition, the “delta R” value at HbS/A (compound at 9 μM) is “+ (a delta R of between 0 and 30)”. Besides, the “delta p50% Values for Whole Blood Assay” value with whole blood was “+ (a delta p50% of between 0 and 29)”.

In the case of `COCCOc1cc(C=O)c(OCc2cccnc2-c2ccnn2CCC(F)(F)F)cn1` [Compound 209, 2-(2-methoxyethoxy)-5-((2-(1-(3,3,3-trifluoropropyl)-1H-pyrazol-5-yl)pyridin-3-yl)methoxy)isonicotinaldehyde], the “delta p50% Values for Whole Blood Assay” value with whole blood is “+ (a delta p50% of between 0 and 29)”.
